Data from the supplement of paper PMC10307832.

Experiments:
Assay in all cases: relative viability (nuclei count vs DMSO), 5 days (fraction); higher = more cells survive
[1] = tested on: NCI-H727
How it was run: (§1)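 Values are medians from duplicate plates. Each reflects relative viability, defined as the nuclei count of treated wells over that of vehicle wells. Lung cancer cell lines in 1536-well plates were pin-tool dosed one day after seeding with one drug alone or with a fixed anchor-drug dose plus five library-drug doses (not always all listed) in √10 steps, then fixed, stained and imaged at 4× after 5 days.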

[2] = tested on: NCI-H1650
How it was run: as §1

[3] = tested on: ChaGo-K-1
How it was run: as §1

[4] = tested on: NCI-H2405
How it was run: as §1

[5] = tested on: NCI-H2228
How it was run: as §1

[6] = tested on: NCI-H23
How it was run: as §1

[7] = tested on: NCI-H1755
How it was run: as §1

[8] = tested on: NCI-H1703
How it was run: as §1

[9] = tested on: NCI-H1975
How it was run: as §1

[10] = tested on: NCI-H358
How it was run: as §1

[11] = tested on: NCI-H596
How it was run: as §1

[12] = tested on: NCI-H460
How it was run: as §1

[13] = tested on: LCLC-97TM1
How it was run: as §1

[14] = tested on: NCI-H1993
How it was run: as §1

[15] = tested on: HCC-78
How it was run: as §1

[16] = tested on: NCI-H1944
How it was run: as §1

[17] = tested on: NCI-H2126
How it was run: as §1

[18] = tested on: LK-2
How it was run: as §1

[19] = tested on: NCI-H1355
How it was run: as §1

[20] = tested on: HOP-62
How it was run: as §1

[21] = tested on: PC-3 [JPC-3]
How it was run: as §1

[22] = tested on: NCI-H1734
How it was run: as §1

Nc1cccc2c1CN(C1CCC(=O)NC1=O)C2=O (centres undefined) [Lenalidomide] + CS(=O)(=O)N1CCN(Cc2cc3nc(-c4cccc5[nH]ncc45)nc(N4CCOCC4)c3s2)CC1 [Pictilisib] (partner 1 µM) showed a relative viability ([1]; first compound 0.253 µM) of 0.418, a relative viability ([1]; first compound 2.53 µM) of 0.44 and a relative viability ([1]; first compound 8 µM) of 0.306. It also gave a relative viability ([2]; first compound 0.253 µM) of 0.562, a relative viability ([2]; first compound 0.8 µM) of 0.441 and a relative viability ([2]; first compound 2.53 µM) of 0.731. It also gave a relative viability ([2]; first compound 8 µM) of 0.637, a relative viability ([3]; first compound 0.253 µM) of 0.791 and a relative viability ([3]; first compound 2.53 µM) of 0.739. It also gave a relative viability ([3]; first compound 8 µM) of 0.625, a relative viability ([4]; first compound 0.253 µM) of 0.423 and a relative viability ([4]; first compound 0.8 µM) of 0.438. For the same compound, the relative viability ([4]; first compound 2.53 µM) was 0.37, the relative viability ([4]; first compound 8 µM) was 0.269 and the relative viability ([5]; first compound 0.253 µM) was 0.42. For the same compound, the relative viability ([5]; first compound 0.8 µM) was 0.714, the relative viability ([5]; first compound 2.53 µM) was 0.724 and the relative viability ([5]; first compound 8 µM) was 0.355. It also gave a relative viability ([6]; first compound 0.253 µM) of 0.372, a relative viability ([6]; first compound 0.8 µM) of 0.576 and a relative viability ([6]; first compound 2.53 µM) of 0.523. It also gave a relative viability ([6]; first compound 8 µM) of 0.378, a relative viability ([7]; first compound 0.253 µM) of 0.407 and a relative viability ([7]; first compound 0.8 µM) of 0.322. The relative viability ([7]; first compound 2.53 µM) was 0.521, the relative viability ([7]; first compound 8 µM) was 0.325 and the relative viability ([8]; first compound 0.253 µM) was 0.245. For the same compound, the relative viability ([8]; first compound 0.8 µM) was 0.27, the relative viability ([8]; first compound 2.53 µM) was 0.287 and the relative viability ([8]; first compound 8 µM) was 0.267. The relative viability ([9]; first compound 0.253 µM) was 0.316, the relative viability ([9]; first compound 0.8 µM) was 0.228 and the relative viability ([9]; first compound 2.53 µM) was 0.278. It also gave a relative viability ([9]; first compound 8 µM) of 0.223, a relative viability ([10]; first compound 0.253 µM) of 0.399 and a relative viability ([10]; first compound 0.8 µM) of 0.428. The relative viability ([10]; first compound 2.53 µM) was 0.384, the relative viability ([10]; first compound 8 µM) was 0.302 and the relative viability ([11]; first compound 0.253 µM) was 0.382. For the same compound, the relative viability ([11]; first compound 0.8 µM) was 0.359, the relative viability ([11]; first compound 2.53 µM) was 0.381 and the relative viability ([11]; first compound 8 µM) was 0.365. The relative viability ([12]; first compound 0.253 µM) was 0.363, the relative viability ([12]; first compound 0.8 µM) was 0.263 and the relative viability ([12]; first compound 2.53 µM) was 0.25. The relative viability ([12]; first compound 8 µM) was 0.264, the relative viability ([13]; first compound 0.8 µM) was 0.182 and the relative viability ([13]; first compound 2.53 µM) was 0.261. The relative viability ([13]; first compound 8 µM) was 0.165, the relative viability ([14]; first compound 0.253 µM) was 0.824 and the relative viability ([14]; first compound 0.8 µM) was 0.827. For the same compound, the relative viability ([14]; first compound 2.53 µM) was 0.872, the relative viability ([14]; first compound 8 µM) was 0.803 and the relative viability ([15]; first compound 0.253 µM) was 0.233. The relative viability ([15]; first compound 0.8 µM) was 0.185, the relative viability ([15]; first compound 2.53 µM) was 0.232 and the relative viability ([15]; first compound 8 µM) was 0.174. It also gave a relative viability ([16]; first compound 0.253 µM) of 0.382, a relative viability ([16]; first compound 0.8 µM) of 0.309 and a relative viability ([16]; first compound 2.53 µM) of 0.319. It also gave a relative viability ([16]; first compound 8 µM) of 0.287, a relative viability ([17]; first compound 0.253 µM) of 0.501 and a relative viability ([17]; first compound 0.8 µM) of 0.423. It also gave a relative viability ([17]; first compound 2.53 µM) of 0.458, a relative viability ([17]; first compound 8 µM) of 0.421 and a relative viability ([18]; first compound 0.253 µM) of 0.602. It also gave a relative viability ([18]; first compound 2.53 µM) of 0.599, a relative viability ([18]; first compound 8 µM) of 0.538 and a relative viability ([19]; first compound 0.253 µM) of 0.419. For the same compound, the relative viability ([19]; first compound 0.8 µM) was 0.258, the relative viability ([19]; first compound 2.53 µM) was 0.429 and the relative viability ([19]; first compound 8 µM) was 0.259. It also gave a relative viability ([20]; first compound 0.253 µM) of 0.627, a relative viability ([20]; first compound 0.8 µM) of 0.834 and a relative viability ([20]; first compound 2.53 µM) of 0.922. For the same compound, the relative viability ([20]; first compound 8 µM) was 0.535, the relative viability ([21]; first compound 0.253 µM) was 0.781 and the relative viability ([21]; first compound 0.8 µM) was 0.609. For the same compound, the relative viability ([21]; first compound 2.53 µM) was 0.98, the relative viability ([21]; first compound 8 µM) was 0.734 and the relative viability ([22]; first compound 0.253 µM) was 0.438. For the same compound, the relative viability ([22]; first compound 0.8 µM) was 0.489, the relative viability ([22]; first compound 2.53 µM) was 0.465 and the relative viability ([22]; first compound 8 µM) was 0.329.
